Numbered stars: 1 amine (or outer) side, 2 acyl side, 3 side chain; on linkers, the order of the positions; unused ones are H or OH. Bridge positions count the residues as written; N and C are the ends. Square brackets hold non-standard residues; d marks the D form. Side chains are listed from the residue outwards. Peptide text beside a SMILES is read from it. * marks the point of attachment. C20 diacid = O=C(O)CCCCCCCCCCCCCCCCCCC(=O)*; C18 diacid = O=C(O)CCCCCCCCCCCCCCCCC(=O)*; γGlu = O=C(O)[C@H](CCC(=O)[*:2])N[*:1]; Hyp = O=C(O)[C@@H]1C[C@@H](O)CN1; AEEA = NCCOCCOCC(=O)O; Inp = O=C(O)C1CCNCC1

The target of this assay is T1, human amylin receptor (Homo sapiens, UniProt O60896+P30988).
T1 construct: host or cells: CHO-K1/Ga15/AMY3 cells, further stably transfected with a CRE-luciferase plasmid
T1 sequence (P30988 25-474): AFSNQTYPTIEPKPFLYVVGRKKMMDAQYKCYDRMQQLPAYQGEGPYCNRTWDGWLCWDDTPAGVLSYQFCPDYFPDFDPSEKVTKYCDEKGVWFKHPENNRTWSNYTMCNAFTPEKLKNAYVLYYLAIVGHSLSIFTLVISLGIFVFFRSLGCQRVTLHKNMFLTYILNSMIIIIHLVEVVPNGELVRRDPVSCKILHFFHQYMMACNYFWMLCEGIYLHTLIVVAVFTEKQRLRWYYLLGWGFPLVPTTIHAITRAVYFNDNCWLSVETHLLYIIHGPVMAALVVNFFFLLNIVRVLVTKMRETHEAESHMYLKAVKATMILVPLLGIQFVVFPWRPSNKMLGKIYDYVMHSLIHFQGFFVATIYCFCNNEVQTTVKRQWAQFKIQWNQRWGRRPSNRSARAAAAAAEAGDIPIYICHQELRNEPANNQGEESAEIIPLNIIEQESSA
T1 sequence (O60896 24-148 partner): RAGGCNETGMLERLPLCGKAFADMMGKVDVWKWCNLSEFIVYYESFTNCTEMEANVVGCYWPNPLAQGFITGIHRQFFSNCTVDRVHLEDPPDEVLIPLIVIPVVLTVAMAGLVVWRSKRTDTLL
Put plainly: Luciferase assay of amylin derivatives in amylin receptor/CRE-luc CHO cell line. In kind it is cell-based. The conditions noted are these: CHO-K1/Ga15/AMY3 CRE-luc cells, 24 hours incubation, F12 medium containing 10% FBS; read-out: EC50.
Protocol: The experiment was intended to detect the activity or efficacy of the amylin derivatives on a human amylin receptor in vitro by luciferase assay.
50 μL of growth medium (F12 medium containing 10% FBS) was added into each well of a white 96-well plate, and the stably transfected amylin/CRE-lue CHO cells were inoculated into the white 96-well plate at a density of about 20,000 cells/well for activity determination.
As usually defined, the EC50 is the concentration needed to bring the measured effect to its halfway point. Take `CC[C@H](C)[C@H](NC(=O)[C@@H]1CCCN1C(=O)CNC(=O)[C@H](CC(C)C)NC(=O)[C@H](CC(N)=O)NC(=O)[C@H](CC(N)=O)NC(=O)[C@H](CO)NC(=O)[C@H](CCCCNC(=O)CC[C@H](NC(=O)CCCCCCCCCCCCCCCCCCC(=O)O)C(=O)O)NC(=O)[C@H](Cc1c[nH]cn1)NC(=O)[C@H](CCCNC(=N)N)NC(=O)[C@H](CC(C)C)NC(=O)[C@H](Cc1ccccc1)NC(=O)[C@H](CC(=O)O)NC(=O)[C@H](C)NC(=O)[C@H](CC(C)C)NC(=O)[C@H](CCCNC(=N)N)NC(=O)[C@H](CCC(N)=O)NC(=O)[C@@H](NC(=O)[C@H](C)NC(=O)[C@@H]1CSSC[C@H](NC(=O)[C@@H](N)CCCNC(=N)N)C(=O)N[C@@H](CC(N)=O)C(=O)N[C@@H]([C@@H](C)O)C(=O)N[C@@H](C)C(=O)N[C@@H]([C@@H](C)O)C(=O)N1)[C@@H](C)O)C(=O)N[C@@H](CC(C)C)C(=O)N1CCC[C@H]1C(=O)N1CCC[C@H]1C(=O)N[C@H](C(=O)N[C@@H](CC(N)=O)C(=O)N[C@H](C(=O)NCC(=O)N[C@@H](CO)C(=O)N[C@@H](CC(N)=O)C(=O)N[C@H](C(=O)N1C[C@H](O)C[C@H]1C(N)=O)[C@@H](C)O)C(C)C)[C@@H](C)O` [PD098] (H-RCNTATCATQRLADFLRHK([γGlu-C20 diacid])SNNLGPILPPTNVGSNT[Hyp]-NH2; disulfide 2-7): the EC50 turned out to be 0.077 nM.

With `CC[C@H](C)[C@H](NC(=O)[C@@H]1CCCN1C(=O)[C@H](CCCCNC(=O)CC[C@H](NC(=O)CCCCCCCCCCCCCCCCCCC(=O)O)C(=O)O)NC(=O)[C@H](CC(C)C)NC(=O)[C@H](CC(N)=O)NC(=O)[C@H](CC(N)=O)NC(=O)[C@H](CO)NC(=O)[C@H](CO)NC(=O)[C@H](Cc1c[nH]cn1)NC(=O)[C@H](CCCNC(=N)N)NC(=O)[C@H](CC(C)C)NC(=O)[C@H](Cc1ccccc1)NC(=O)[C@H](CC(=O)O)NC(=O)[C@H](C)NC(=O)[C@H](CC(C)C)NC(=O)[C@H](CCCNC(=N)N)NC(=O)[C@H](CCC(N)=O)NC(=O)[C@@H](NC(=O)[C@H](C)NC(=O)[C@@H]1CSSC[C@H](NC(=O)[C@@H](N)Cc2c[nH]cn2)C(=O)N[C@@H](CC(N)=O)C(=O)N[C@@H]([C@@H](C)O)C(=O)N[C@@H](C)C(=O)N[C@@H]([C@@H](C)O)C(=O)N1)[C@@H](C)O)C(=O)N[C@@H](CC(C)C)C(=O)N1CCC[C@H]1C(=O)N1CCC[C@H]1C(=O)N[C@H](C(=O)N[C@@H](CC(N)=O)C(=O)N[C@H](C(=O)NCC(=O)N[C@@H](CO)C(=O)N[C@@H](CC(N)=O)C(=O)N[C@H](C(=O)N1C[C@H](O)C[C@H]1C(N)=O)[C@@H](C)O)C(C)C)[C@@H](C)O` [PD078] (H-HCNTATCATQRLADFLRHSSNNLK([γGlu-C20 diacid])PILPPTNVGSNT[Hyp]-NH2; disulfide 2-7), the EC50 worked out at 0.035 nM.

Turning to `CC[C@H](C)[C@H](NC(=O)[C@@H]1CCCN1C(=O)CNC(=O)[C@H](CCCCNC(=O)COCCOCCNC(=O)CC[C@H](NC(=O)CCCCCCCCCCCCCCCCCCC(=O)O)C(=O)O)NC(=O)[C@H](CC(N)=O)NC(=O)[C@H](CC(N)=O)NC(=O)[C@H](CO)NC(=O)[C@H](CO)NC(=O)[C@H](Cc1c[nH]cn1)NC(=O)[C@H](CCCNC(=N)N)NC(=O)[C@H](CC(C)C)NC(=O)[C@H](Cc1ccccc1)NC(=O)[C@H](CC(=O)O)NC(=O)[C@H](C)NC(=O)[C@H](CC(C)C)NC(=O)[C@H](CCCNC(=N)N)NC(=O)[C@H](CCC(N)=O)NC(=O)[C@@H](NC(=O)[C@H](C)NC(=O)[C@@H]1CSSC[C@H](NC(=O)[C@@H](N)CCCNC(=N)N)C(=O)N[C@@H](CC(N)=O)C(=O)N[C@@H]([C@@H](C)O)C(=O)N[C@@H](C)C(=O)N[C@@H]([C@@H](C)O)C(=O)N1)[C@@H](C)O)C(=O)N[C@@H](CC(C)C)C(=O)N1CCC[C@H]1C(=O)N1CCC[C@H]1C(=O)N[C@H](C(=O)N[C@@H](CC(N)=O)C(=O)N[C@H](C(=O)NCC(=O)N[C@@H](CO)C(=O)N[C@@H](CC(N)=O)C(=O)N[C@H](C(=O)N1C[C@H](O)C[C@H]1C(N)=O)[C@@H](C)O)C(C)C)[C@@H](C)O` [PD110] (H-RCNTATCATQRLADFLRHSSNNK([AEEA-γGlu-C20 diacid])GPILPPTNVGSNT[Hyp]-NH2; disulfide 2-7), the EC50 is 0.039 nM.

As to `CC[C@H](C)[C@H](NC(=O)[C@@H]1CCCN1C(=O)[C@H](CCCCN)NC(=O)[C@H](CC(C)C)NC(=O)[C@H](CC(N)=O)NC(=O)[C@H](CC(N)=O)NC(=O)[C@H](CO)NC(=O)[C@H](CO)NC(=O)[C@H](Cc1c[nH]cn1)NC(=O)[C@H](CCCNC(=N)N)NC(=O)[C@H](CC(C)C)NC(=O)[C@H](Cc1ccccc1)NC(=O)[C@H](CC(=O)O)NC(=O)[C@H](C)NC(=O)[C@H](CC(C)C)NC(=O)[C@H](CCCNC(=N)N)NC(=O)[C@H](CCC(N)=O)NC(=O)[C@@H](NC(=O)[C@H](C)NC(=O)[C@@H]1CSSC[C@H](NC(=O)[C@H](CCCCN)NC(=O)C2CCN(C(=O)COCCOCCNC(=O)COCCOCCNC(=O)CCCCCCCCCCCCCCCCCCC(=O)O)CC2)C(=O)N[C@@H](CC(N)=O)C(=O)N[C@@H]([C@@H](C)O)C(=O)N[C@@H](C)C(=O)N[C@@H]([C@@H](C)O)C(=O)N1)[C@@H](C)O)C(=O)N[C@@H](CC(C)C)C(=O)N1CCC[C@H]1C(=O)N1CCC[C@H]1C(=O)N[C@H](C(=O)N[C@@H](CC(N)=O)C(=O)N[C@H](C(=O)NCC(=O)N[C@@H](CO)C(=O)N[C@@H](CC(N)=O)C(=O)N[C@H](C(=O)N1C[C@H](O)C[C@H]1C(N)=O)[C@@H](C)O)C(C)C)[C@@H](C)O` [PD180] ({C20 diacid-AEEA-AEEA-Inp}-KCNTATCATQRLADFLRHSSNNLKPILPPTNVGSNT[Hyp]-NH2; disulfide 2-7), the EC50 stood at 0.016 nM.

On to `CC[C@H](C)[C@H](NC(=O)[C@@H]1CCCN1C(=O)CNC(=O)[C@H](CC(C)C)NC(=O)[C@H](CC(N)=O)NC(=O)[C@H](CC(N)=O)NC(=O)[C@H](CCCCNC(=O)COCCOCCNC(=O)COCCOCCNC(=O)CC[C@H](NC(=O)CCCCCCCCCCCCCCCCC(=O)O)C(=O)O)NC(=O)[C@H](CO)NC(=O)[C@H](Cc1c[nH]cn1)NC(=O)[C@H](CCCNC(=N)N)NC(=O)[C@H](CC(C)C)NC(=O)[C@H](Cc1ccccc1)NC(=O)[C@H](CC(=O)O)NC(=O)[C@H](C)NC(=O)[C@H](CC(C)C)NC(=O)[C@H](CCCNC(=N)N)NC(=O)[C@H](CCC(N)=O)NC(=O)[C@@H](NC(=O)[C@H](C)NC(=O)[C@@H]1CSSC[C@H](NC(=O)[C@@H](N)CCCNC(=N)N)C(=O)N[C@@H](CC(N)=O)C(=O)N[C@@H]([C@@H](C)O)C(=O)N[C@@H](C)C(=O)N[C@@H]([C@@H](C)O)C(=O)N1)[C@@H](C)O)C(=O)N[C@@H](CC(C)C)C(=O)N1CCC[C@H]1C(=O)N1CCC[C@H]1C(=O)N[C@H](C(=O)N[C@@H](CC(N)=O)C(=O)N[C@H](C(=O)NCC(=O)N[C@@H](CO)C(=O)N[C@@H](CC(N)=O)C(=O)N[C@H](C(=O)N1C[C@H](O)C[C@H]1C(N)=O)[C@@H](C)O)C(C)C)[C@@H](C)O` [PD097] (H-RCNTATCATQRLADFLRHSK([AEEA-AEEA-γGlu-C18 diacid])NNLGPILPPTNVGSNT[Hyp]-NH2; disulfide 2-7), for which the EC50 is 0.014 nM.

Consider “{C20 diacid-γGlu}-KGGGGRCNTATCATQRLADFLRHSSNNLRPILPPTNVGSNTP-NH2 (disulfide 7-12 (inferred)) [PD198]”, for which the 50% effective concentration (EC50) was 0.029 nM.

As for `CC[C@H](C)[C@H](NC(=O)[C@@H]1CCCN1C(=O)CNC(=O)[C@H](Cc1ccccc1)NC(=O)[C@H](CC(N)=O)NC(=O)[C@H](CC(N)=O)NC(=O)[C@H](CO)NC(=O)[C@H](CO)NC(=O)[C@H](Cc1c[nH]cn1)NC(=O)[C@@H](NC(=O)[C@H](CC(C)C)NC(=O)[C@H](Cc1ccccc1)NC(=O)[C@H](CC(N)=O)NC(=O)[C@H](C)NC(=O)[C@H](CC(C)C)NC(=O)[C@H](CCCNC(=N)N)NC(=O)[C@H](CCC(N)=O)NC(=O)[C@@H](NC(=O)[C@H](C)NC(=O)[C@@H]1CSSC[C@H](NC(=O)[C@H](CCCCN)NC(=O)CC[C@H](NC(=O)CCCCCCCCCCCCCCCCCCC(=O)O)C(=O)O)C(=O)N[C@@H](CC(N)=O)C(=O)N[C@@H]([C@@H](C)O)C(=O)N[C@@H](C)C(=O)N[C@@H]([C@@H](C)O)C(=O)N1)[C@@H](C)O)C(C)C)C(=O)N[C@@H](CC(C)C)C(=O)N1CCC[C@H]1C(=O)N1CCC[C@H]1C(=O)N[C@H](C(=O)N[C@@H](CC(N)=O)C(=O)N[C@H](C(=O)NCC(=O)N[C@@H](CO)C(=O)N[C@@H](CC(N)=O)C(=O)N[C@H](C(=O)N[C@@H](Cc1ccc(O)cc1)C(N)=O)[C@@H](C)O)C(C)C)[C@@H](C)O` [PD156] ({C20 diacid-γGlu}-KCNTATCATQRLANFLVHSSNNFGPILPPTNVGSNTY-NH2; disulfide 2-7 (inferred)), the EC50 was found to be 0.029 nM.

(Values after US20260166128A1, “HUMAN AMYLIN ANALOG, AND DERIVATIVE THEREOF AND USE THEREOF” (priority 2022, published 2026).)
